Data on four sequences can be found in US9611301B2, “GB virus C (hepatitis G virus) E2 glycoprotein as an immunomodulatory agent” (priority 2012, dated 2017).

Where no end group is shown, it is not given here.

One test has as its target T1, Lck (Homo sapiens, UniProt P06239).
T1 construct: purchased Promega
The test is described as follows: Lck mediated phosphorylation of TAT-peptides (Lck kinase enzyme system). The conditions noted are these: in vitro. The test is classed as biochemical. The procedure:
CD45 activity was measured using CD45 tyrosine phosphatase assay kit (Enzo Life Sciences) following the manufacturer's instructions. Purified recombinant GBV-C E2 protein expressed in CHO cells was described previouslyl^2. Enzymatic activity was evaluated with or without GBV-C E2 protein (10 μg) or human IgG control (10 μg; Sigma) at room temperature. Following 1 hour incubation, the reaction was terminated and absorbance determined by a Microplate reader (Model 680, Bio-Rad) at OD620nm. Phosphorylation of GBV-C E2 protein by Lck was measured by incubating recombinant E2 protein (40 μg) with or without human Lck ([…]; R&D Systems) as recommended by the manufacturer. Samples were subjected to immunoblot analysis as described above. Phosphorylation was determined by immunoblot analysis with phosphotyrosine antibodies (Invitrogen) and GBV-C E2 protein was identified using an anti-E2 monoclonal antibody. Lck mediated phosphorylation of GBV-C E2 derived TAT-peptides were performed using Lck kinase enzyme system (Promega) as recommended by the manufacturer.

The subject of a further test is Healthy donors PBMCs. Briefly: IL-2 production by PBMCs incubated with synthetic TAT peptides, anti-CD3/CD28 stimulation. The conditions noted are these: 20 μg peptide over night, anti-CD3/CD28 500 ng/ml, 24 hrs. The test is classed as cell-based, human. From the text: pLAT (Y191) was quantified using PathScan ELISA kit (Cell Signaling Technology) and IL-2 cytokine released into cell culture supernatant was quantified using human IL-2 quantikine ELISA kit (R&D Systems) according to manufacturer's instructions.
(§1) FITC labelled synthetic peptides with an N-terminal HIV TAT protein transduction domain (TAT) alone (GGGGGRKKRRQRRR; SEQ ID NO: 13), or with the GBV-C E2 aa 86-101 ([…]; SEQ ID NO: 14; Y87), or the Y87H mutation ([…]; SEQ ID NO: 15) were obtained from Ana Spec, Inc. Peptides with the TAT domain and GBV-C E2 aa 276-292 (GGAGLTGGRYEPLVRRC; SEQ ID NO: 16), or the same amino acids in a scrambled order (GCRCARGVLLTPGEGYF; SEQ ID NO: 17) as previously described^28. Peptides were dissolved in RPMI with 10% DMSO. The TAT domain enhances cellular uptake of the peptide. Healthy donors PBMCs (1×10^6 cells/ml) were incubated with 20 μg peptide at 37° C. over night before stimulation with 500 ng/ml anti-CD3/CD28. IL-2 release and cellular receptor expression was analyzed 24 hrs later.

The subject of test [1] is primary human CD4+ and CD8+ T cells. The test is described as follows: CD69 and CD25 surface expression on CD4+ and CD8+ T cells incubated with synthetic TAT peptides. Particulars: compared to mutant or control peptide. The test is classed as cell-based. As for the experimental part: Cellular receptor expression was measured using the following antibodies per manufacturer's recommendation: CD69 (PE), CD25 (APC), CD45 (PE) (BD Biosciences). Cells were incubated on ice for 1 hour, washed 3 times with PBS and fixed in 2% paraformaldehyde (Polysciences). Data was acquired on BD LSR II flow cytometer using single stained CompBeads (BD Biosciences) for compensation. At least 10,000 total events were collected in each experiment and the FlowJo program (Tree Star Inc.) was used for data analysis. All flow cytometry experiments were repeated at least three times with consistent results.
as §1

T1 sequence (P06239 whole entry, species assumed): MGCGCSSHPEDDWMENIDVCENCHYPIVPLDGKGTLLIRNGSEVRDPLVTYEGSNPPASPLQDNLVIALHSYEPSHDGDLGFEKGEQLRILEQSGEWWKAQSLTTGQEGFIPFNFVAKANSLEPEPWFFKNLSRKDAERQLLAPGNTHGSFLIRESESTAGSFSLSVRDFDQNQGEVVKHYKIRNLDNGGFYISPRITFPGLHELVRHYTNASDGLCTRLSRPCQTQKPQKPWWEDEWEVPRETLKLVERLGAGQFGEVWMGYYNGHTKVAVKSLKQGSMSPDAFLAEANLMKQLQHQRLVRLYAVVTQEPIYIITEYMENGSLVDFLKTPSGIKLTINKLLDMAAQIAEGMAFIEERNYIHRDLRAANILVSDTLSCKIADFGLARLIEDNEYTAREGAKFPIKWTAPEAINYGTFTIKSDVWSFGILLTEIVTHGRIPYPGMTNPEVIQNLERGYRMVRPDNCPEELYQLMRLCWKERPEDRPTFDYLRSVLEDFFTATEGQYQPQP

Regarding GGAGLTGGRYEPLVRRC [TAT-276-292], the “Lck mediated phosphorylation of peptide (Lck substrate)” value on Lck is reported as “served as a Lck substrate in vitro”.
Turning to “GGGGGRKKRRQRRRVHGSVSVTCVWGS (also: FITC label, site not given here) [TAT-Y87H, TAT peptide with the Y87H mutation]”, in the test on Healthy donors PBMCs, the IL-2 production entry is on record as “not”.
As for “GGGGGRKKRRQRRRVYGSVSVTCVWGS (also: FITC label, site not given here) [TAT-Y87, synthetic peptide, N-terminal HIV TAT protein transduction domain with GBV-C E2 aa 86-101]”, the “Lck mediated phosphorylation of peptide (Lck substrate)” value in the test with Lck is recorded as “phosphorylated by Lck in a dose-dependent manner”. Moreover, the IL-2 production entry with Healthy donors PBMCs is on record as “inhibited”. Also, in test [1], the “surface expression of CD25” value is reported as “significantly reduced” and the “surface expression of CD69” value is given as “significantly reduced”.
Turning to “GGGGGRKKRRQRRR (also: FITC label, site not given here) [TAT control, HIV TAT protein transduction domain alone; negative control, reference compound]”, in the test with Healthy donors PBMCs, the IL-2 production result was “not”.
